Source: US20260062422A1 (Halda Therapeutics OpCo, Inc., priority 2022, published 2026)

Columns and labels:
VCaP cells = assay: Cellular growth inhibition assay for VCaP cells, CellTiter-Glo; format: cell-based, human; details: 72 hours treatment, CellTiter-Glo 2.0
In short: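 GI50 values come from four-parameter curve fits of luminescence data normalized to a zero baseline. Compound, in medium with 0.5% DMSO, was added one day after plating and left for 72 h before CellTiter-Glo 2.0 addition.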

[1] = test system: T-Rex 293 cell line SC3 cells having increased expression of androgen receptor protein due to exposure to doxycycline; assay: Cellular growth inhibition, T-Rex 293 SC3 cells with doxycycline (androgen receptor induced), CellTiter-Glo; format: cell-based; details: T-Rex 293 SC3 cells with 10 ng/mL doxycycline (increased androgen receptor expression)
In short: (§1)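 With DMSO (0.5%) vehicle as negative control, compounds treated SC3 cells for 72 h in medium containing charcoal-dextran FBS ± doxycycline. This T-Rex 293 clone expresses transfected wild-type AR on induction. Readout: CellTiter-Glo 2.0; GI50 by nonlinear regression.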

T47D cells = assay: Cellular growth inhibition assay for T47D cells, CellTiter-Glo; format: cell-based, human; details: 72 hours treatment, CellTiter-Glo 2.0 cell viability
In short: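 Growth inhibition as GI50, fitted with four parameters to CellTiter-Glo luminescence after 72 h of compound exposure (0.5% DMSO). Cells were T47D, grown in insulin-supplemented (0.2 units/mL) DMEM with 10% FBS and treated one day post-seeding.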

[2] = test system: T-Rex 293 cell line SC3 cells lacking increased expression of androgen receptor protein; assay: Cellular growth inhibition, T-Rex 293 SC3 cells without doxycycline, CellTiter-Glo; format: cell-based; details: T-Rex 293 SC3 cells not exposed to doxycycline, CellTiter-Glo 2.0
In short: as §1

Compound | GI50 (VCaP cells; Homo sapiens, VCaP, 72 h) | GI50 (T47D cells; Homo sapiens, T47D, 72 h) | GI50 (VCaP cells) | GI50 (T47D cells) | GI50 ([1]; 72 h) | GI50 ([2]; 72 h) | GI50 ([1]; 72 hours) | GI50 ([2]; 72 hours)
Cc1sc2c(c1C)C(c1ccc(CC3CCN(c4ncc(C(=O)N[C@H]5C(C)(C)[C@H](Oc6ccc(C#N)c(Cl)c6)C5(C)C)cn4)CC3)cc1)=N[C@@H](C)c1nnc(C)n1-2 [Compound I-557] | < 500 nM | > 3000 nM |  |  | < 500 nM | < 500 nM |  | 
Cc1sc2c(c1C)C(c1ccc(CCC(=O)N3CCN(c4ncc(C(=O)N[C@H]5C(C)(C)[C@H](Oc6ccc(C#N)c(Cl)c6)C5(C)C)cn4)CC3)cc1)=N[C@@H](Cc1ncco1)c1nnc(C)n1-2 [Compound I-287] | < 500 nM | < 500 nM |  |  | < 500 nM | < 500 nM |  | 
Cc1sc2c(c1C)C(c1ccc(C3CC(C4CCN(c5ncc(C(=O)N[C@H]6C(C)(C)[C@H](Oc7ccc(C#N)c(Cl)c7)C6(C)C)cn5)CC4)C3)cc1)=NC(C)c1nnc(C)n1-2 (stereo partly drawn) [Compound I-465] |  | < 500 nM | < 500 nM |  | < 500 nM | > 3000 nM |  | 
Cc1sc2c(c1C)C(c1ccc(OC3CC(CC4CCN(c5ncc(C(=O)N[C@H]6C(C)(C)[C@H](Oc7ccc(C#N)c(Cl)c7)C6(C)C)cn5)CC4)C3)cc1)=N[C@@H](Cc1ncco1)c1nnc(C)n1-2 (stereo partly drawn) [Compound I-189] | < 500 nM | < 500 nM |  |  | < 500 nM | > 3000 nM |  | 
Cc1sc2c(c1C)C(c1ccc(OC[C@H]3C[C@]4(CCCN(c5ncc(C(=O)N[C@H]6C(C)(C)[C@H](Oc7ccc(C#N)c(Cl)c7)C6(C)C)cn5)C4)C3)cc1)=N[C@@H](C)c1nnc(C)n1-2 [Compound I-350] | < 500 nM | > 3000 nM |  |  | < 500 nM | > 3000 nM |  | 
Cc1sc2c(c1C)C(c1ccc(O[C@@H]3CO[C@@]4(CCCN(c5ncc(C(=O)N[C@H]6C(C)(C)[C@H](Oc7ccc(C#N)c(Cl)c7)C6(C)C)cn5)C4)C3)cc1)=N[C@@H](Cc1ncco1)c1nnc(C)n1-2 [Compound I-188] | < 500 nM | < 500 nM |  |  | < 500 nM | < 500 nM |  | 
Cc1sc2c(c1C)C(c1ccc(-n3nccc3C3CCN(c4ncc(C(=O)N[C@H]5C(C)(C)[C@H](Oc6ccc(C#N)c(Cl)c6)C5(C)C)cn4)CC3)cc1)=N[C@@H](Cc1ncco1)c1nnc(C)n1-2 [Compound I-455] | < 500 nM | > 3000 nM |  |  | < 500 nM | > 3000 nM |  | 
Cc1sc2c(c1C)C(c1ccc(C(=O)N(C)CCCc3ncc(C(=O)N[C@H]4C(C)(C)[C@H](Oc5ccc(C#N)c(Cl)c5)C4(C)C)cn3)cc1)=N[C@@H](Cc1ncco1)c1nnc(C)n1-2 [Compound I-342] | > 3000 nM | > 3000 nM |  |  | > 3000 nM | > 3000 nM |  | 
Cc1sc2c(c1C)C(c1ccc(C3CC(C4CCN(c5ncc(C(=O)N[C@H]6C(C)(C)[C@H](Oc7ccc(C#N)c(Cl)c7)C6(C)C)cn5)CC4)C3)cc1)=NC(C)c1nnc(C)n1-2 (stereo partly drawn) [Compound I-467] |  |  | < 500 nM | < 500 nM |  |  | < 500 nM | > 3000 nM
Cc1sc2c(c1C)C(c1ccc(O[C@H]3COC4(C3)CN(c3ncc(C(=O)N[C@H]5C(C)(C)[C@H](Oc6ccc(C#N)c(Cl)c6)C5(C)C)cn3)C4)cc1)=N[C@@H](Cc1ncco1)c1nnc(C)n1-2 [Compound I-181] | < 500 nM | < 500 nM |  |  | < 500 nM | < 500 nM |  | 
Cc1sc2c(c1C)C(c1ccc(C3CC(N4CCN(c5cnc(C(=O)N[C@H]6C(C)(C)[C@H](Oc7ccc(C#N)c(Cl)c7)C6(C)C)cn5)CC4)C3)cc1)=N[C@@H](C)c1nnc(C)n1-2 (stereo partly drawn) [Compound I-573] | < 500 nM | < 500 nM |  |  | < 500 nM | 500 to 1500 nM |  | 
Cc1sc2c(c1C)C(c1ccc(C3CC(C4CCN(c5cnc(C(=O)N[C@H]6C(C)(C)[C@H](Oc7ccc(C#N)c(Cl)c7)C6(C)C)cn5)CC4)C3)cc1)=NC(C)c1nnc(C)n1-2 (stereo partly drawn) [Compound I-472] |  |  | > 3000 nM | < 500 nM |  |  | > 3000 nM | > 3000 nM
Cc1sc2c(c1C)C(c1ccc(CCCOC3CCN(c4ncc(C(=O)N[C@H]5C(C)(C)[C@H](Oc6ccc(C#N)c(Cl)c6)C5(C)C)cn4)CC3)cc1)=N[C@H](Cc1cccnc1)c1nnc(C)n1-2 [Compound I-217] | < 500 nM | < 500 nM |  |  | < 500 nM | > 3000 nM |  | 
Cc1sc2c(c1C)C(c1ccc(-c3conc3OC3CCN(c4ncc(C(=O)N[C@H]5C(C)(C)[C@H](Oc6ccc(C#N)c(Cl)c6)C5(C)C)cn4)CC3)cc1)=N[C@@H](Cc1ncco1)c1nnc(C)n1-2 [Compound I-432] | < 500 nM | > 3000 nM |  |  | < 500 nM | > 3000 nM |  | 
Cc1sc2c(c1C)C(c1ccc(C(=O)N3CCC(N(C)c4ncc(C(=O)N[C@H]5C(C)(C)[C@H](Oc6ccc(C#N)c(Cl)c6)C5(C)C)cn4)CC3)cc1)=N[C@@H](Cc1ncco1)c1nnc(C)n1-2 [Compound I-293] | > 3000 nM | > 3000 nM |  |  | < 500 nM | > 3000 nM |  | 
Cc1sc2c(c1C)C(c1ccc(N3CCOC4(CCN(c5ncc(C(=O)N[C@H]6C(C)(C)[C@H](Oc7ccc(C#N)c(Cl)c7)C6(C)C)cn5)CC4)C3)cc1)=NC(Cc1ncco1)c1nnc(C)n1-2 (stereo partly drawn) [Compound I-647] | > 3000 nM | < 500 nM |  |  | < 500 nM | > 3000 nM |  | 
CCNC(=O)C[C@@H]1N=C(c2ccc(OCCN(C)c3ncc(C(=O)N[C@H]4C(C)(C)[C@H](Oc5ccc(C#N)c(Cl)c5)C4(C)C)cn3)cc2)c2c(sc(C)c2C)-n2c(C)nnc21 [Compound I-80] | < 500 nM | 500 to 1500 nM |  |  | < 500 nM | 500 to 1500 nM |  | 
CC[C@@H]1N=C(c2ccc(CC3CCC4(C3)CN(c3ncc(C(=O)N[C@H]5C(C)(C)[C@H](Oc6ccc(C#N)c(Cl)c6)C5(C)C)cn3)CCO4)cc2)c2c(sc(C)c2C)-n2c(C)nnc21 (stereo partly drawn) [Compound I-614] |  |  | < 500 nM | < 500 nM |  |  | < 500 nM | > 3000 nM

More lines, main results first:

GI50 (VCaP cells; Homo sapiens, VCaP, 72 h) | GI50 (T47D cells; Homo sapiens, T47D, 72 h) | GI50 (VCaP cells) | GI50 (T47D cells) | Compound | GI50 ([1]; 72 h) | GI50 ([2]; 72 h) | GI50 ([1]; 72 hours) | GI50 ([2]; 72 hours)
> 3000 nM | > 3000 nM |  |  | Cc1sc2c(c1C)C(c1ccc([C@@H]3CCN(C(=O)[C@@H]4CCCN(c5ncc(C(=O)N[C@H]6C(C)(C)[C@H](Oc7ccc(C#N)c(Cl)c7)C6(C)C)cn5)C4)C3)cc1)=N[C@@H](Cc1ncco1)c1nnc(C)n1-2 [Compound I-383] | > 3000 nM | > 3000 nM |  | 
< 500 nM | < 500 nM |  |  | Cc1sc2c(c1C)C(c1ccc(O[C@@H]3CCC4(C3)CN(c3ncc(C(=O)N[C@H]5C(C)(C)[C@H](Oc6ccc(C#N)c(Cl)c6)C5(C)C)cn3)C4)cc1)=N[C@@H](Cc1ncco1)c1nnc(C)n1-2 [Compound I-191] | < 500 nM | < 500 nM |  | 
> 3000 nM | > 3000 nM |  |  | Cc1sc2c(c1C)C(c1ccc([C@H]3CC[C@@]4(C3)CN(c3ncc(C(=O)N[C@H]5C(C)(C)[C@H](Oc6ccc(C#N)c(Cl)c6)C5(C)C)cn3)CCO4)cc1)=N[C@@H](Cc1ncco1)c1nnc(C)n1-2 [Compound I-428] | < 500 nM | > 3000 nM |  | 
< 500 nM | < 500 nM |  |  | Cc1sc2c(c1C)C(c1ccc([C@@H]3CCCN(c4ncc(C(=O)N[C@H]5C(C)(C)[C@H](Oc6ccc(C#N)c(Cl)c6)C5(C)C)cn4)C3)cc1)=N[C@@H](Cc1ncco1)c1nnc(C)n1-2 [Compound I-295] | < 500 nM | < 500 nM |  | 
< 500 nM | < 500 nM |  |  | Cc1sc2c(c1C)C(c1ccc(OC[C@H]3CCCN(c4ncc(C(=O)N[C@H]5C(C)(C)[C@H](Oc6ccc(C#N)c(Cl)c6)C5(C)C)cn4)C3)cc1)=N[C@@H](Cc1ncco1)c1nnc(C)n1-2 [Compound I-255] | < 500 nM | < 500 nM |  | 
500 to 1500 nM | 500 to 1500 nM |  |  | Cc1sc2c(c1C)C(c1ccc(N3CCCC(CN(C)c4ncc(C(=O)N[C@H]5C(C)(C)[C@H](Oc6ccc(C#N)c(Cl)c6)C5(C)C)cn4)C3)cc1)=N[C@@H](Cc1ncco1)c1nnc(C)n1-2 (stereo partly drawn) [Compound I-650] | < 500 nM | > 3000 nM |  | 
 |  | < 500 nM | < 500 nM | Cc1sc2c(c1C)C(c1ccc(C3CC(CC4CN(c5ncc(C(=O)N[C@H]6C(C)(C)[C@H](Oc7ccc(C#N)c(Cl)c7)C6(C)C)cn5)C4)C3)cc1)=NC(Cc1ncco1)c1nnc(C)n1-2 (stereo partly drawn) [Compound I-477] |  |  | < 500 nM | < 500 nM
> 3000 nM | > 3000 nM |  |  | Cc1sc2c(c1C)C(c1ccc([C@H]3C[C@@H]([C@@H]4CCCN(c5ncc(C(=O)N[C@H]6C(C)(C)[C@H](Oc7ccc(C#N)c(Cl)c7)C6(C)C)cn5)C4)C3)cc1)=N[C@@H](Cc1ncco1)c1nnc(C)n1-2 [Compound I-419] | > 3000 nM | > 3000 nM |  | 
< 500 nM | < 500 nM |  |  | Cc1sc2c(c1C)C(c1ccc(C[C@H]3CC[C@H]4CN(c5ncc(C(=O)N[C@H]6C(C)(C)[C@H](Oc7ccc(C#N)c(Cl)c7)C6(C)C)cn5)CCN4C3)cc1)=NC(Cc1ncco1)c1nnc(C)n1-2 (stereo partly drawn) [Compound I-324] | > 3000 nM | < 500 nM |  | 
